# Experimental data: ChEMBL document CHEMBL4270589, “Novel coumarin-pyrazole carboxamide derivatives as potential topoisomerase II inhibitors: Design, synthesis and antibacterial activity” (Eur J Med Chem, 2018)
# Columns and labels:
# Assay type in all cases: functional
# [1] = system: Listeria monocytogenes; test: Antibacterial activity against Listeria monocytogenes ATCC 15313 after 24 hrs by agar dilution method; conditions: ATCC 15313, 24 h
# [2] = system: Escherichia coli; test: Antibacterial activity against Escherichia coli ATCC 25922 after 24 hrs by agar dilution method; conditions: ATCC 25922, 24 h
# [3] = system: Staphylococcus aureus; test: Antibacterial activity against Staphylococcus aureus ATCC 12600 after 24 hrs by agar dilution method; conditions: ATCC 12600, 24 h
# [4] = system: Salmonella enterica; test: Antibacterial activity against Salmonella enterica ATCC 9184 after 24 hrs by agar dilution method; conditions: ATCC 9184, 24 h
MIC [1] [µg/mL],MIC [2] [µg/mL],MIC [3] [µg/mL],MIC [4] [µg/mL],SMILES
> 128,64,64,64,CCN(CC)c1ccc2cc(C(=O)Nc3c(C#N)cnn3-c3ccc(F)cc3)c(=O)oc2c1
32,32,32,32,O=C(O)c1cnn(-c2ccc(Cl)cc2)c1NC(=O)c1cc2cc([N+](=O)[O-])ccc2oc1=O
32,4,> 128,32,O=C(O)c1cnn(-c2ccc(F)cc2)c1NC(=O)c1cc2cc(Br)ccc2oc1=O
64,64,64,64,CCOC(=O)c1cnn(-c2ccccc2)c1NC(=O)c1cc2ccc(N(CC)CC)cc2oc1=O
64,> 128,> 128,> 128,N#Cc1cnn(-c2ccc(F)cc2)c1NC(=O)c1cc2ccccc2oc1=O
64,16,4,64,CCOC(=O)c1cnn(-c2ccccc2)c1NC(=O)c1cc2cc(Cl)ccc2oc1=O
32,64,32,64,CCOC(=O)c1cnn(-c2ccc(Cl)cc2)c1NC(=O)c1cc2cc([N+](=O)[O-])ccc2oc1=O
2,64,4,> 128,CCOC(=O)c1cnn(-c2ccc(C)cc2)c1NC(=O)c1cc2cc(Cl)ccc2oc1=O
> 128,> 128,> 128,> 128,O=C(O)c1cnn(-c2ccc(F)cc2)c1NC(=O)c1cc2ccccc2oc1=O
1,8,4,32,CCOC(=O)c1cnn(-c2ccc(Cl)cc2)c1NC(=O)c1cc2cc(Br)ccc2oc1=O
64,64,16,2,CCOC(=O)c1cnn(-c2ccccc2)c1NC(=O)c1cc2ccccc2oc1=O
> 128,> 128,> 128,> 128,Cc1ccc(-n2ncc(C#N)c2NC(=O)c2cc3cc([N+](=O)[O-])ccc3oc2=O)cc1
32,> 128,> 128,> 128,CCOC(=O)c1cnn(-c2ccc(C)cc2)c1NC(=O)c1cc2ccccc2oc1=O
16,8,4,0.25,N#Cc1cnn(-c2ccc(Cl)cc2)c1NC(=O)c1cc2cc(Br)ccc2oc1=O
> 128,> 128,> 128,> 128,Cc1ccc(-n2ncc(C#N)c2NC(=O)c2cc3cc(Cl)ccc3oc2=O)cc1
> 128,64,64,64,O=C(O)c1cnn(-c2ccccc2)c1NC(=O)c1cc2cc([N+](=O)[O-])ccc2oc1=O
32,32,32,> 128,O=C(O)c1cnn(-c2ccccc2)c1NC(=O)c1cc2cc(Cl)ccc2oc1=O
32,32,64,> 128,O=C(O)c1cnn(-c2ccc(F)cc2)c1NC(=O)c1cc2cc(Cl)ccc2oc1=O
16,16,16,64,CCOC(=O)c1cnn(-c2ccccc2)c1NC(=O)c1cc2cc(Br)ccc2oc1=O

MIC [1] [µg/mL],MIC [2] [µg/mL],MIC [3] [µg/mL],MIC [4] [µg/mL],SMILES
> 128,32,8,> 128,Cc1ccc(-n2ncc(C#N)c2NC(=O)c2cc3ccccc3oc2=O)cc1
16,32,32,16,CCN(CC)c1ccc2cc(C(=O)Nc3c(C(=O)O)cnn3-c3ccc(F)cc3)c(=O)oc2c1
> 128,> 128,> 128,> 128,CCOC(=O)c1cnn(-c2ccccc2)c1NC(=O)c1cc2cc([N+](=O)[O-])ccc2oc1=O
> 128,4,> 128,64,Cc1ccc(-n2ncc(C(=O)O)c2NC(=O)c2cc3cc([N+](=O)[O-])ccc3oc2=O)cc1
64,64,2,> 128,N#Cc1cnn(-c2ccc(F)cc2)c1NC(=O)c1cc2cc(Br)ccc2oc1=O
16,32,4,32,CCN(CC)c1ccc2cc(C(=O)Nc3c(C#N)cnn3-c3ccccc3)c(=O)oc2c1
> 128,> 128,> 128,> 128,O=C(O)c1cnn(-c2ccccc2)c1NC(=O)c1cc2cc(Br)ccc2oc1=O
> 128,> 128,> 128,> 128,CCOC(=O)c1cnn(-c2ccc(C)cc2)c1NC(=O)c1cc2ccc(N(CC)CC)cc2oc1=O
8,4,16,0.125,N#Cc1cnn(-c2ccc(Cl)cc2)c1NC(=O)c1cc2cc([N+](=O)[O-])ccc2oc1=O
> 128,64,64,> 128,Cc1ccc(-n2ncc(C(=O)O)c2NC(=O)c2cc3cc(Br)ccc3oc2=O)cc1
> 128,> 128,> 128,> 128,N#Cc1cnn(-c2ccc(F)cc2)c1NC(=O)c1cc2cc([N+](=O)[O-])ccc2oc1=O
8,2,2,16,CCN(CC)c1ccc2cc(C(=O)Nc3c(C#N)cnn3-c3ccc(Cl)cc3)c(=O)oc2c1
64,64,16,32,N#Cc1cnn(-c2ccccc2)c1NC(=O)c1cc2ccccc2oc1=O
32,4,2,32,CCOC(=O)c1cnn(-c2ccc(Cl)cc2)c1NC(=O)c1cc2cc(Cl)ccc2oc1=O
32,32,32,64,N#Cc1cnn(-c2ccc(F)cc2)c1NC(=O)c1cc2cc(Cl)ccc2oc1=O
32,64,32,32,O=C(O)c1cnn(-c2ccc(Cl)cc2)c1NC(=O)c1cc2ccccc2oc1=O
2,32,32,2,CCOC(=O)c1cnn(-c2ccc(C)cc2)c1NC(=O)c1cc2cc(Br)ccc2oc1=O
> 128,> 128,> 128,> 128,CCOC(=O)c1cnn(-c2ccc(F)cc2)c1NC(=O)c1cc2ccc(N(CC)CC)cc2oc1=O
> 128,64,> 128,64,CCOC(=O)c1cnn(-c2ccc(F)cc2)c1NC(=O)c1cc2cc(Cl)ccc2oc1=O

MIC [1] [µg/mL],MIC [2] [µg/mL],MIC [3] [µg/mL],MIC [4] [µg/mL],SMILES
> 128,> 128,> 128,> 128,CCOC(=O)c1cnn(-c2ccc(F)cc2)c1NC(=O)c1cc2ccccc2oc1=O
32,32,16,64,N#Cc1cnn(-c2ccccc2)c1NC(=O)c1cc2cc(Cl)ccc2oc1=O
> 128,> 128,> 128,> 128,CCOC(=O)c1cnn(-c2ccc(C)cc2)c1NC(=O)c1cc2cc([N+](=O)[O-])ccc2oc1=O
64,64,16,16,CCOC(=O)c1cnn(-c2ccc(Cl)cc2)c1NC(=O)c1cc2ccccc2oc1=O
32,> 128,> 128,> 128,O=C(O)c1cnn(-c2ccccc2)c1NC(=O)c1cc2ccccc2oc1=O
> 128,4,64,> 128,CCOC(=O)c1cnn(-c2ccc(F)cc2)c1NC(=O)c1cc2cc(Br)ccc2oc1=O
32,32,4,16,N#Cc1cnn(-c2ccc(Cl)cc2)c1NC(=O)c1cc2ccccc2oc1=O
1,8,2,0.25,CCN(CC)c1ccc2cc(C(=O)Nc3c(C(=O)O)cnn3-c3ccccc3)c(=O)oc2c1
> 128,> 128,> 128,> 128,CCN(CC)c1ccc2cc(C(=O)Nc3c(C#N)cnn3-c3ccc(C)cc3)c(=O)oc2c1
8,> 128,> 128,64,Cc1ccc(-n2ncc(C#N)c2NC(=O)c2cc3cc(Br)ccc3oc2=O)cc1
8,4,4,64,N#Cc1cnn(-c2ccc(Cl)cc2)c1NC(=O)c1cc2cc(Cl)ccc2oc1=O
> 128,> 128,> 128,> 128,O=C(O)c1cnn(-c2ccc(F)cc2)c1NC(=O)c1cc2cc([N+](=O)[O-])ccc2oc1=O
32,4,32,32,O=C(O)c1cnn(-c2ccc(Cl)cc2)c1NC(=O)c1cc2cc(Br)ccc2oc1=O
16,> 128,> 128,> 128,Cc1ccc(-n2ncc(C(=O)O)c2NC(=O)c2cc3cc(Cl)ccc3oc2=O)cc1
> 128,> 128,> 128,> 128,N#Cc1cnn(-c2ccccc2)c1NC(=O)c1cc2cc([N+](=O)[O-])ccc2oc1=O
8,64,32,> 128,CCOC(=O)c1cnn(-c2ccc(F)cc2)c1NC(=O)c1cc2cc([N+](=O)[O-])ccc2oc1=O
> 128,64,64,> 128,Cc1ccc(-n2ncc(C(=O)O)c2NC(=O)c2cc3ccccc3oc2=O)cc1
> 128,> 128,> 128,> 128,N#Cc1cnn(-c2ccccc2)c1NC(=O)c1cc2cc(Br)ccc2oc1=O
